Laboratory results from patent US12187709B2 (Genentech, Inc., priority 2021, dated 2025).

Tests used:
Cbl-b = Cbl-b (Homo sapiens (Human), UniProt Q13191); assay: Cbl-b LCK Ub TR-FRET assay (Cbl-b Lck HTRF); type: biochemical; settings: for IC50: Cbl-b LCK Ub TR-FRET; for fold-selectivity (Cbl-b over C-cbl): ratio C-cbl Lck HTRF IC50 / Cbl-b Lck HTRF IC50
Summary of the method: (§1)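 Detection reagents added, brief spin, 20 min RT. IC50 fit normalized to no-LCK (low) and DMSO (high) controls.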

c-Cbl = c-Cbl (Homo sapiens (Human), UniProt P22681); assay: C-Cbl LCK Ub TR-FRET assay (C-cbl Lck HTRF); type: biochemical
Summary of the method: as §1

[1] = target: Human Cbl-b (residues 40-426) (Homo sapiens (Human), UniProt Q13191); assay: Cbl-b SPR assay; type: binding; settings: for Fold of selectivity: C-cbl SPR Kd vs Cbl-b SPR Kd; for Kd: SPR, 20° C.
Summary of the method: (§2)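 First, protein is captured to 1300-1500 RU. Then compound runs in single cycle kinetics, a blank plus 5 two-fold concentrations up to 500 nM (120 s contact, 50 μl/min, 450 s dissociation). Chaser injections (20 s, 30 μl/min) track occupancy, giving kd, which is fixed when fitting the titration.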

c-Cbl (residues 47-435) = c-Cbl (residues 47-435) (Homo sapiens (Human), UniProt P22681); assay: c-Cbl SPR assay; type: binding; settings: 20° C.
Summary of the method: as §2

c-Cbl (residues 47-435), sequence (P22681 47-435): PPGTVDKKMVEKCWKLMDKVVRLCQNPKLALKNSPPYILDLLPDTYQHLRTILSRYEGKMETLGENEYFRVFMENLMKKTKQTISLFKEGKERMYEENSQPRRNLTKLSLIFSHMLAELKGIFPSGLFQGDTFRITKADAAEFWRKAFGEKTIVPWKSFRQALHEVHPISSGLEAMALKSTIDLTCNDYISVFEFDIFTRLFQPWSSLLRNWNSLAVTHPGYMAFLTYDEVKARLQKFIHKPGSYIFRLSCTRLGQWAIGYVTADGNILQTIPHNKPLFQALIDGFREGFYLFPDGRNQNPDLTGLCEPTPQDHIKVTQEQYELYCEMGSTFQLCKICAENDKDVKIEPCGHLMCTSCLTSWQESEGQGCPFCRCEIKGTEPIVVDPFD
c-Cbl, sequence (P22681 47-435): as above
Human Cbl-b (residues 40-426), sequence (Q13191 40-426): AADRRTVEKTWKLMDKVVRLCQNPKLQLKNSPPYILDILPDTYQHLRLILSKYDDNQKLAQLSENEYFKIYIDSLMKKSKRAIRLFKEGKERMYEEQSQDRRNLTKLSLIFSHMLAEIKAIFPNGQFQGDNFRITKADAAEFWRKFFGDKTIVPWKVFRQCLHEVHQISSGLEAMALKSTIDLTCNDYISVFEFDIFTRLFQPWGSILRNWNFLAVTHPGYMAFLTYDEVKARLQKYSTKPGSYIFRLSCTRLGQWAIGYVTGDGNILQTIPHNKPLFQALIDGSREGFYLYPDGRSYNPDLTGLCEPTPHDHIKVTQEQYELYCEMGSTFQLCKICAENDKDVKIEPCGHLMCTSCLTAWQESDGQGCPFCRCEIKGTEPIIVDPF
Cbl-b, sequence (Q13191 40-426): as above

IC50 (Cbl-b) [nM]	fold-selectivity (Cbl-b over C-cbl) (Cbl-b) [x]	IC50 (c-Cbl) [nM]	Fold of selectivity [1] [×]	Kd [1] [nM]	Kd (c-Cbl (residues 47-435)) [nM]	SMILES
130	4.0	530	8.6	34	270	CO[C@H]1C[C@@](c2cc(OC3COC3)cc(N3Cc4c(cc(CNC5(C)CCC5)cc4C(F)(F)F)C3=O)c2)(c2nncn2C)C1 [Compound 241, 2-(3-((1s,3s)-3-methoxy-1-(4-methyl-4H-1,2,4-triazol-3-yl)cyclobutyl)-5-(oxetan-3-yloxy)phenyl)-6-(((1-methylcyclobutyl)amino)methyl)-4-(trifluoromethyl)isoindolin-1-one]
56	4.0	220	5.5	23	130	CO[C@H]1C[C@](c2cc(OC3COC3)cc(N3Cc4c(cc(CNC5(C)CCC5)cc4C(F)(F)F)C3=O)c2)(c2nncn2C)C1 [Compound 242, 2-(3-((1r,3r)-3-methoxy-1-(4-methyl-4H-1,2,4-triazol-3-yl)cyclobutyl)-5-(oxetan-3-yloxy)phenyl)-6-(((1-methylcyclobutyl)amino)methyl)-4-(trifluoromethyl)isoindolin-1-one]
64	4.4	290	14	11	150	CO[C@H]1C[C@@](c2cc(NC3COC3)cc(N3Cc4c(cc(CNC5(C)CCC5)cc4C(F)(F)F)C3=O)c2)(c2nncn2C)C1 [Compound 243, 2-(3-((1s,3s)-3-methoxy-1-(4-methyl-4H-1,2,4-triazol-3-yl)cyclobutyl)-5-(oxetan-3-ylamino)phenyl)-6-(((1-methylcyclobutyl)amino)methyl)-4-(trifluoromethyl)isoindolin-1-one]
8.6	1.7	15	2.1	4.2	8.5	Cn1cnnc1[C@]1(c2cccc(N3Cc4c(Cl)cc(CNC5(C)CCC5)cc4C3=O)c2)C[C@H](F)C1 [Compound 246, 4-chloro-2-(3-((1s,3s)-3-fluoro-1-(4-methyl-4H-1,2,4-triazol-3-yl)cyclobutyl)phenyl)-6-(((1-methylcyclobutyl)amino)methyl)isoindolin-1-one]
9.8	1.9	18	5.5	2.2	12	Cn1cnnc1[C@]1(c2cccc(N3Cc4c(cc(CNC5(C)CCC5)cc4C(F)F)C3=O)c2)C[C@H](F)C1 [Compound 247, 4-(difluoromethyl)-2-(3-((1s,3s)-3-fluoro-1-(4-methyl-4H-1,2,4-triazol-3-yl)cyclobutyl)phenyl)-6-(((1-methylcyclobutyl)amino)methyl)isoindolin-1-one]
100	5.0	500	6.9	49	300	Cn1cnnc1[C@H](CC1CCCC1)c1cccc(N2Cc3c(cc(CNC4(C)CCC4)cc3C(F)(F)F)C2=O)c1 [Compound 249, (R)-2-(3-(2-cyclopentyl-1-(4-methyl-4H-1,2,4-triazol-3-yl)ethyl)phenyl)-6-(((1-methylcyclobutyl)amino)methyl)-4-(trifluoromethyl)isoindolin-1-one]
210	6.5	1400	14	180	2500	Cn1cnnc1[C@@H](c1cccc(N2Cc3c(cc(CNC4(C)CCC4)cc3C(F)(F)F)C2=O)c1)C1CCCC1 [Compound 256, (R)-2-(3-(cyclopentyl(4-methyl-4H-1,2,4-triazol-3-yl)methyl)phenyl)-6-(((1-methylcyclobutyl)amino)methyl)-4-(trifluoromethyl)isoindolin-1-one]
22	1.2	27	5.7	0.65	3.7	Cn1cnnc1[C@H](c1cccc(N2Cc3c(cc(CNC4(C)CCC4)cc3C(F)(F)F)C2=O)c1)C1CCCC1 [Compound 257, (S)-2-(3-(cyclopentyl(4-methyl-4H-1,2,4-triazol-3-yl)methyl)phenyl)-6-(((1-methylcyclobutyl)amino)methyl)-4-(trifluoromethyl)isoindolin-1-one]
170	5.8	970	13	170	2200	Cn1cnnc1[C@@H](c1cccc(N2Cc3c(cc(CNC4(C)CCC4)cc3C(F)(F)F)C2=O)c1)C1CCC1 [Compound 258, (R)-2-(3-(cyclobutyl(4-methyl-4H-1,2,4-triazol-3-yl)methyl)phenyl)-6-(((1-methylcyclobutyl)amino)methyl)-4-(trifluoromethyl)isoindolin-1-one]
450	5.4	2400	8.8	590	2200	Cn1cnnc1[C@@H](c1cccc(N2Cc3c(cc(CNC4(C)CCC4)cc3C(F)(F)F)C2=O)c1)C1CC(OCC(F)F)C1 (stereo partly drawn) [Compound 260, 2-(3-((R)-((1r,3R)-3-(2,2-difluoroethoxy)cyclobutyl)(4-methyl-4H-1,2,4-triazol-3-yl)methyl)phenyl)-6-(((1-methylcyclobutyl)amino)methyl)-4-(trifluoromethyl)isoindolin-1-one]
11	2.3	27	5.9	2.6	16	Cn1cnnc1[C@@H](c1cccc(N2Cc3c(Cl)cc(CNC4(C)CCC4)cc3C2=O)c1)C1COC1 [Compound 270, (R)-4-chloro-2-(3-((4-methyl-4H-1,2,4-triazol-3-yl)(oxetan-3-yl)methyl)phenyl)-6-(((1-methylcyclobutyl)amino)methyl)-isoindolin-1-one]
15	1.7	25	7.6	1.4	11	Cn1cnnc1[C@]1(c2cccc(N3Cc4c(cc(CNC5(C)CCC5)cc4C(F)F)C3=O)c2)C[C@@H](F)C1 [Compound 272, 4-(difluoromethyl)-2-(3-((1r,3r)-3-fluoro-1-(4-methyl-4H-1,2,4-triazol-3-yl)cyclobutyl)phenyl)-6-(((1-methylcyclobutyl)amino)methyl)isoindolin-1-one]
7.5	0.91	6.9	2.0	0.1	0.2	CCNc1cc([C@]2(c3nncn3C)C[C@@H](C)C2)cc(N2Cc3c(cc(CNC4(C)CCC4)cc3C(F)F)C2=O)n1 [Compound 274, 4-(difluoromethyl)-2-(6-(ethylamino)-4-((1s,3s)-3-methyl-1-(4-methyl-4H-1,2,4-triazol-3-yl)cyclobutyl)pyridin-2-yl)-6-(((1-methylcyclobutyl)amino)methyl)isoindolin-1-one]
